Common to all, as to format: biochemical
The target in assay [1] is T1, recombinant human MAO-B (monoamine oxidase-B) (Homo sapiens, UniProt P27338).
T1 construct: purchased Sigma-Aldrich
T1 sequence (P27338 1-520): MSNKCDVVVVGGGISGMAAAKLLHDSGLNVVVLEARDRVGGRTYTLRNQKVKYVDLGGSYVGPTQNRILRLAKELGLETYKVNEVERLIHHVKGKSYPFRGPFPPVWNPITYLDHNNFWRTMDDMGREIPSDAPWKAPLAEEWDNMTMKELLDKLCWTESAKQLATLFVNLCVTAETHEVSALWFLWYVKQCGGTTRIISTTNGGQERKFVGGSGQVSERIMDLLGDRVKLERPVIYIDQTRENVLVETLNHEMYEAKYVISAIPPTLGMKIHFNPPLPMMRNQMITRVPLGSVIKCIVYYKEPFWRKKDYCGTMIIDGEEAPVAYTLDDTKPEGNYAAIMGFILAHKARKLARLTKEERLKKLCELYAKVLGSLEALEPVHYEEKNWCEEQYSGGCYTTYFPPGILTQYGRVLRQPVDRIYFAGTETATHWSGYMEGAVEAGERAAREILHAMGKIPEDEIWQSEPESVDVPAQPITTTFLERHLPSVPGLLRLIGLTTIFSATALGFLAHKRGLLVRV
In words: Activity on recombinant human MAO-B, method similar to the VAP-1 assay. Particulars: substrate 1 mM benzylamine; read-out: Inhibitory Activity (IC50, nM) MAO-B. In outline: (§1)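 Fluorescence (544/590 nm) of resorufin formed from Amplex Red by HRP and enzyme-generated H2O2 was followed over 1-2 h. Substrates were 0.5 mM tyramine for MAO-A and 1 mM benzylamine for MAO-B; compounds were preincubated with enzyme for 30 min at 37° C. IC50 came from four-parameter logistic fitting of signal-rate inhibition.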

The next assay deals with T2, recombinant human VAP-1 (Homo sapiens, UniProt Q16853).
T2 construct: purchased R&D systems
T2 sequence (Q16853 1-763): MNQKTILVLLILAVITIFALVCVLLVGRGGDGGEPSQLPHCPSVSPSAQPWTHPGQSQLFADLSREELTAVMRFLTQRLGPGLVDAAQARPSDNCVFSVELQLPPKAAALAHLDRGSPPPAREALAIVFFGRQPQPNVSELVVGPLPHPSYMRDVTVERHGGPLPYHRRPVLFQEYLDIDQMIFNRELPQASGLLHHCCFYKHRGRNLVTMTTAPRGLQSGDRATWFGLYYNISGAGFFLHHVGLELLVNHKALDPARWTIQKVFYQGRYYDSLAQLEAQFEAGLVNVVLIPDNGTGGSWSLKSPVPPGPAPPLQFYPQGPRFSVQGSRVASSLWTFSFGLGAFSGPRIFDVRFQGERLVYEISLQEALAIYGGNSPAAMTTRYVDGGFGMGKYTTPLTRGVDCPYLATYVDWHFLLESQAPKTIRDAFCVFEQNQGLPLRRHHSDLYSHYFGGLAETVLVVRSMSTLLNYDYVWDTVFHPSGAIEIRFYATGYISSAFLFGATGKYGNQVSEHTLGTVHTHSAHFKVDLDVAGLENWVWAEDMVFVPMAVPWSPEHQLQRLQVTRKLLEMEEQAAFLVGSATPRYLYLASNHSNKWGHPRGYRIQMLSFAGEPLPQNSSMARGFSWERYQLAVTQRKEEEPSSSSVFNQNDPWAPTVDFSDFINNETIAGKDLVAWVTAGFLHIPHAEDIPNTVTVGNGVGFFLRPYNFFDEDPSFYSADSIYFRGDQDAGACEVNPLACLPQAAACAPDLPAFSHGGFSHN
In words: Activity on recombinant human VAP-1, HRP-coupled Amplex Red hydrogen peroxide assay. Particulars: substrate 1 mM benzylamine; compound incubated with enzyme at 37° C. for 30 minutes; pH 7.4; read-out: Inhibitory Activity (IC50, nM) human VAP-1. In outline:
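Fluorescence of resorufin formed from H2O2 (ex 544 nm, em 590 nm) was tracked for 1-2 h after adding 1 mM benzylamine, 200 uM Amplex Red and 1 U/mL HRP to enzyme pretreated with compound for 30 min at 37 °C. IC50 values derive from four-variable logistic fits.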

Assay [2] addresses T3, recombinant human MAO-A (monoamine oxidase-A) (Homo sapiens, UniProt P21397).
T3 construct: purchased Sigma-Aldrich
T3 sequence (P21397 1-527): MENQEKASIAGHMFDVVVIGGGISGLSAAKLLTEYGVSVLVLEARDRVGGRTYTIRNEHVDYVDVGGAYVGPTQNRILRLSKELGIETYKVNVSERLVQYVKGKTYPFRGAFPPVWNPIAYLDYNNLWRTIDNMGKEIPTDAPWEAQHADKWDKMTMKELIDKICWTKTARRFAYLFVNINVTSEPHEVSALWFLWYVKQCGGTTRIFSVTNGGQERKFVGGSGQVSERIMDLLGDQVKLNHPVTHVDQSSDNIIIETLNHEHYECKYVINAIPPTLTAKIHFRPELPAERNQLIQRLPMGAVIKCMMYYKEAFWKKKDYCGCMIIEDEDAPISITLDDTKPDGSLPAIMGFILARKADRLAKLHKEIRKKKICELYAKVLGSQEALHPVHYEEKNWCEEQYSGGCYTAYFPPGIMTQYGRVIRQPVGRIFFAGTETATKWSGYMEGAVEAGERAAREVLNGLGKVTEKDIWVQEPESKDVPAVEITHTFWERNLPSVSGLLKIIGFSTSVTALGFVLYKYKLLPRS
In words: Activity on recombinant human MAO-A, method similar to the VAP-1 assay. Particulars: substrate 0.5 mM tyramine; read-out: Inhibitory Activity (IC50, nM) MAO-A. The procedure, abridged:
as §1

Assay [3] concerns the target T4, recombinant human DAO (diamine oxidase) (Homo sapiens, UniProt P19801).
T4 construct: purchased R&D systems
T4 sequence (P19801 20-751): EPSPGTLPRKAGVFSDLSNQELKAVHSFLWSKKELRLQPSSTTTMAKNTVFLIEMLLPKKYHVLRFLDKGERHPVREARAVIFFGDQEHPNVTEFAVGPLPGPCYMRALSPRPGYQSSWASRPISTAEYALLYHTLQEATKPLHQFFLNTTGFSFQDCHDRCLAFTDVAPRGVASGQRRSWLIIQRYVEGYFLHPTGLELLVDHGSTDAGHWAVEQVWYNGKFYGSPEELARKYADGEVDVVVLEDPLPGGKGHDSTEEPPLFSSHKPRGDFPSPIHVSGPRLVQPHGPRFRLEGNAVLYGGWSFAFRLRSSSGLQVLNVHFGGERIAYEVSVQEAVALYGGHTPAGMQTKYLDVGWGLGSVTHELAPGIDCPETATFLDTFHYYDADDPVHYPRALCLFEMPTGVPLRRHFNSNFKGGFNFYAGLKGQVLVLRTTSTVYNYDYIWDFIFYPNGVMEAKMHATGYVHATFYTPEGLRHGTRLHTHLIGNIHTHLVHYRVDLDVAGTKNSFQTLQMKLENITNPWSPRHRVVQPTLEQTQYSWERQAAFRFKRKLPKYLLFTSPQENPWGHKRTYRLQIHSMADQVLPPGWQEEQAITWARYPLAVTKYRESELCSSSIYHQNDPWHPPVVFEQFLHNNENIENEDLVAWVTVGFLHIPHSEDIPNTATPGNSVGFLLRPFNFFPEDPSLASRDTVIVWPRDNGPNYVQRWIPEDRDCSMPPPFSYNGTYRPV
In words: Activity on recombinant human DAO, method similar to the VAP-1 assay. Particulars: substrate 1 mM putrescine; read-out: Inhibitory Activity (IC50, nM) DAO. The procedure, abridged:
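Inhibition of recombinant human diamine oxidase (DAO, R&D systems) was assessed by the same approach as the VAP-1 assay, using 1 mM putrescine as substrate. Hydrogen peroxide formed was detected through an HRP-coupled Amplex Red reaction yielding fluorescent resorufin, read at 544 nm excitation and 590 nm emission. IC50 values came from four-parameter logistic fitting in GraphPad Prism.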

Structures can show the parent of a compound that is named as a salt.

As usually defined, the IC50 is the concentration that inhibits the measured activity by half. Take `COC(=O)c1cccc(-c2ccc(Cn3cnn(C/C(=C/F)CN)c3=O)s2)c1` [Example 11, methyl 3-[5-(1-[(2E)-2-(aminomethyl)-3-fluoroprop-2-en-1-yl]-5-oxo-1,5-dihydro-4H-1,2,4-triazol-4-ylmethyl)thiophen-2-yl]benzoate hydrochloride]: the IC50 in assay [1] was 35 nM; on recombinant human VAP-1 it was 1.8 nM; in assay [2], over 100000 nM; in assay [3], 1100 nM.

As to `CNc1ncc2cc(-c3ccc(Cn4cnn(C/C(=C/F)CN)c4=O)s3)ccc2n1` [Example 112, 2-[(2E)-2-(aminomethyl)-3-fluoroprop-2-en-1-yl]-4-(5-[2-(methylamino)quinazolin-6-yl]thiophen-2-ylmethyl)-2,4-dihydro-3H-1,2,4-triazol-3-one hydrochloride], the IC50 in assay [1] was 950 nM; on recombinant human VAP-1, 0.9 nM; in assay [2], over 100000 nM; in assay [3], 310 nM.

For the molecule `NC/C(=C\F)Cn1ncn(Cc2ccc(-c3cccc(-c4nnc[nH]4)c3)s2)c1=O` [Example 33, 2-[(2E)-2-(aminomethyl)-3-fluoroprop-2-en-1-yl]-4-(5-[3-(4H-1,2,4-triazol-3-yl)phenyl]thiophen-2-ylmethyl)-2,4-dihydro-3H-1,2,4-triazol-3-one], the IC50 is 600 nM in assay [1], 0.8 nM at recombinant human VAP-1, over 100000 nM in assay [2] and 790 nM in assay [3].

For `NC/C(=C\F)Cn1ncn(Cc2ccc(-c3ccc(S(=O)(=O)N4CCOCC4)cc3)s2)c1=O` [Example 29, 2-[(2E)-2-(aminomethyl)-3-fluoroprop-2-en-1-yl]-4-(5-[4-(morpholin-4-ylsulfonyl)phenyl]thiophen-2-ylmethyl)-2,4-dihydro-3H-1,2,4-triazol-3-one hydrochloride], the concentration for half-maximal inhibition (IC50) in assay [1] is over 10000 nM; at recombinant human VAP-1, 1.4 nM; in assay [2], over 100000 nM; in assay [3] it was 150 nM.

On to `NC/C(=C\F)Cn1ncn(Cc2ccc(-c3cnn(C4CCNCC4)c3)s2)c1=O` [Example 190, 2-[(2E)-2-(aminomethyl)-3-fluoroprop-2-en-1-yl]-4-({5-[1-(piperidin-4-yl)-1H-pyrazol-4-yl]thiophen-2-yl}methyl)-2,4-dihydro-3H-1,2,4-triazol-3-one], for which the IC50 in assay [1] was over 100000 nM; at recombinant human VAP-1 it was 3.8 nM; in assay [2], over 100000 nM; in assay [3] it was 1800 nM.

On to `NC/C(=C\F)Cn1ncn(Cc2ccc(-c3ccc(-c4ccon4)cc3)s2)c1=O` [Example 40, 2-[(2E)-2-(aminomethyl)-3-fluoroprop-2-en-1-yl]-4-(5-[4-(1,2-oxazol-3-yl)phenyl]thiophen-2-ylmethyl)-2,4-dihydro-3H-1,2,4-triazol-3-one hydrochloride], for which the IC50 was 110 nM in assay [1], 0.6 nM at recombinant human VAP-1, over 100000 nM in assay [2] and 370 nM in assay [3].

For the molecule `CSc1ccc(-c2ccc(Cn3cnn(C/C(=C/F)CN)c3=O)s2)cn1` [Example 46, 2-[(2E)-2-(aminomethyl)-3-fluoroprop-2-en-1-yl]-4-(5-[6-(methylsulfanyl)pyridin-3-yl]thiophen-2-ylmethyl)-2,4-dihydro-3H-1,2,4-triazol-3-one hydrochloride], the IC50 was 740 nM in assay [1], 1.3 nM at recombinant human VAP-1, over 10000 nM in assay [2] and 380 nM in assay [3].

On to `COc1cc(COc2c(C)cc(-c3ccc(Cn4cnn(C/C(=C/F)CN)c4=O)s3)cc2C)cc(OC)c1` [Example 18, 2-[(2E)-2-(aminomethyl)-3-fluoroprop-2-en-1-yl]-4-[(5-4-[(3,5-dimethoxybenzyl)oxy]-3,5-dimethylphenylthiophen-2-yl)methyl]-2,4-dihydro-3H-1,2,4-triazol-3-one hydrochloride], for which the 50% inhibitory concentration (IC50) in assay [1] was 220 nM; at recombinant human VAP-1 it was 2.1 nM; in assay [2], 13000 nM; in assay [3] it was 350 nM.

Turning to `Cc1c(-c2ccc(Cn3cnn(C/C(=C/F)CN)c3=O)s2)ccc2c1COC(=O)N2` [Example 102, 6-[5-[[1-[(E)-2-(aminomethyl)-3-fluoro-allyl]-5-oxo-1,2,4-triazol-4-yl]methyl]-2-thienyl]-5-methyl-1,4-dihydro-3,1-benzoxazin-2-one], the IC50 was 480 nM in assay [1], 0.2 nM on recombinant human VAP-1, over 100000 nM in assay [2] and 760 nM in assay [3].

Turning to `COc1ccc(C#Cc2ccc(Cn3cnn(C/C(=C/F)CN)c3=O)s2)cc1` [Example 126, 2-[(2E)-2-(aminomethyl)-3-fluoroprop-2-en-1-yl]-4-(5-[(4-methoxyphenyl)ethynyl]thiophen-2-ylmethyl)-2,4-dihydro-3H-1,2,4-triazol-3-one hydrochloride], the 50% inhibitory concentration (IC50) was 250 nM in assay [1], 3.4 nM at recombinant human VAP-1, 57000 nM in assay [2] and 1000 nM in assay [3].

The values are drawn from patent publication US11780830B2, “Triazolone derivatives or salts thereof and pharmaceutical compositions comprising the same” (YUHAN CORPORATION, priority 2018, dated 2023).
